Source: PubChem BioAssay AID2060619 (Molecular Pharmacology Branch, DTP, NCI, 2025)

Test system: 323965-272-R-J2-PDC complex spheroid viability
Assay: Anticancer human tumor 323965-272-R-J2-PDC patient-derived pancreatic carcinoma cell line growth inhibition [CLK]
Details: for IC50: curve of first compound; for viability, T/C: stronger effect = lower value
In short: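 Multi-cell-type spheroids combined patient-derived tumor cells with HUVEC endothelial cells and human mesenchymal stem cells. Paired agents were dosed in half-log steps down from about clinical Cmax, or from 10 microM where Cmax was unknown.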

[1] = second compound 0.0316 µM, first compound 0.0316 µM
[2] = second compound 0.0316 µM, first compound 0.1 µM
[3] = second compound 0.1 µM, first compound 0.0316 µM
[4] = second compound 0.1 µM, first compound 0.1 µM
[5] = second compound 0.316 µM, first compound 0.0316 µM
[6] = second compound 0.316 µM, first compound 0.1 µM
[7] = second compound 1 µM, first compound 0.0316 µM
[8] = second compound 1 µM, first compound 0.1 µM
[9] = second compound 3.16 µM, first compound 0.0316 µM
[10] = second compound 3.16 µM, first compound 0.1 µM
[11] = second compound 10 µM, first compound 0.0316 µM
[12] = second compound 10 µM, first compound 0.1 µM
[13] = second compound 0.0316 µM, first compound 0.316 µM
[14] = second compound 0.0316 µM, first compound 1 µM
[15] = second compound 0.0316 µM, first compound 3.16 µM
[16] = second compound 0.0316 µM, first compound 10 µM
[17] = second compound 0.1 µM, first compound 0.316 µM
[18] = second compound 0.1 µM, first compound 1 µM
[19] = second compound 0.1 µM, first compound 3.16 µM
[20] = second compound 0.1 µM, first compound 10 µM
[21] = second compound 0.316 µM, first compound 0.316 µM
[22] = second compound 0.316 µM, first compound 1 µM
[23] = second compound 0.316 µM, first compound 3.16 µM
[24] = second compound 0.316 µM, first compound 10 µM
[25] = second compound 1 µM, first compound 0.316 µM
[26] = second compound 1 µM, first compound 1 µM
[27] = second compound 1 µM, first compound 3.16 µM
[28] = second compound 1 µM, first compound 10 µM
[29] = second compound 3.16 µM, first compound 0.316 µM
[30] = second compound 3.16 µM, first compound 1 µM
[31] = second compound 3.16 µM, first compound 3.16 µM
[32] = second compound 3.16 µM, first compound 10 µM
[33] = second compound 10 µM, first compound 0.316 µM
[34] = second compound 10 µM, first compound 1 µM
[35] = second compound 10 µM, first compound 3.16 µM
[36] = second compound 10 µM, first compound 10 µM
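Further: spheroids exposed to agents for seven days before readout.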
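Wherever viability, T/C is given: percent of DMSO vehicle control wells so 100% = untreated growth.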

`Cn1ncnc1[C@H]1c2n[nH]c(=O)c3cc(F)cc(c23)N[C@@H]1c1ccc(F)cc1` + CN1CCN(c2cc(C(=O)Nc3cc4cc(-c5cnn(C)c5)ccc4cn3)ccn2)CC1 gave an IC50 (second compound 0.0316 µM) greater than 100 nM, an IC50 (second compound 0.1 µM) greater than 100 nM and an IC50 (second compound 0.316 µM) of less than 0.316 nM. It also gave an IC50 (second compound 1 µM) of less than 0.316 nM, an IC50 (second compound 3.16 µM) of less than 0.316 nM and an IC50 (second compound 10 µM) of less than 0.316 nM. For the same compound, the viability, T/C (second compound 0.0316 µM, first compound 0.000316 µM) was 96.1%, the viability, T/C (second compound 0.0316 µM, first compound 0.001 µM) was 96% and the viability, T/C (second compound 0.0316 µM, first compound 0.00316 µM) was 90%. For the same compound, the viability, T/C (second compound 0.0316 µM, first compound 0.01 µM) was 93.3%, the viability, T/C [1] was 97% and the viability, T/C [2] was 68.3%. It also gave a viability, T/C (second compound 0.1 µM, first compound 0.000316 µM) of 67.6%, a viability, T/C (second compound 0.1 µM, first compound 0.001 µM) of 65.7% and a viability, T/C (second compound 0.1 µM, first compound 0.00316 µM) of 61.6%. It also gave a viability, T/C (second compound 0.1 µM, first compound 0.01 µM) of 74%, a viability, T/C [3] of 61.1% and a viability, T/C [4] of 46.1%. It also gave a viability, T/C (second compound 0.316 µM, first compound 0.000316 µM) of 23.8%, a viability, T/C (second compound 0.316 µM, first compound 0.001 µM) of 26.9% and a viability, T/C (second compound 0.316 µM, first compound 0.00316 µM) of 23%. For the same compound, the viability, T/C (second compound 0.316 µM, first compound 0.01 µM) was 27.9%, the viability, T/C [5] was 24.6% and the viability, T/C [6] was 21.8%. For the same compound, the viability, T/C (second compound 1 µM, first compound 0.000316 µM) was 2.64%, the viability, T/C (second compound 1 µM, first compound 0.001 µM) was 3.21% and the viability, T/C (second compound 1 µM, first compound 0.00316 µM) was 3.5%. It also gave a viability, T/C (second compound 1 µM, first compound 0.01 µM) of 2.88%, a viability, T/C [7] of 5.47% and a viability, T/C [8] of 3.21%. The viability, T/C (second compound 3.16 µM, first compound 0.000316 µM) was 4.62%, the viability, T/C (second compound 3.16 µM, first compound 0.001 µM) was 3.78% and the viability, T/C (second compound 3.16 µM, first compound 0.00316 µM) was 5.87%. It also gave a viability, T/C (second compound 3.16 µM, first compound 0.01 µM) of 3.77%, a viability, T/C [9] of 4.01% and a viability, T/C [10] of 4.38%. The viability, T/C (second compound 10 µM, first compound 0.000316 µM) was 4.34%, the viability, T/C (second compound 10 µM, first compound 0.001 µM) was 4.75% and the viability, T/C (second compound 10 µM, first compound 0.00316 µM) was 6.41%. It also gave a viability, T/C (second compound 10 µM, first compound 0.01 µM) of 4.13%, a viability, T/C [11] of 4.28% and a viability, T/C [12] of 4.85%.
In the case of `Nc1ccn(C2OC(CO)C(O)C2(F)F)c(=O)n1` (stereo unspecified) + CN1CCN(c2cc(C(=O)Nc3cc4cc(-c5cnn(C)c5)ccc4cn3)ccn2)CC1, the IC50 (second compound 0.0316 µM) is reported as less than 31.6 nM, the IC50 (second compound 0.1 µM) is reported as less than 31.6 nM and the IC50 (second compound 0.316 µM) is reported as less than 31.6 nM. The IC50 (second compound 1 µM) was less than 31.6 nM, the IC50 (second compound 3.16 µM) was less than 31.6 nM and the IC50 (second compound 10 µM) was less than 31.6 nM. The viability, T/C [1] was 35.2%, the viability, T/C [2] was 30.6% and the viability, T/C [13] was 33.9%. For the same compound, the viability, T/C [14] was 36.6%, the viability, T/C [15] was 25.3% and the viability, T/C [16] was 24.8%. For the same compound, the viability, T/C [3] was 31.1%, the viability, T/C [4] was 29.9% and the viability, T/C [17] was 28.6%. For the same compound, the viability, T/C [18] was 23%, the viability, T/C [19] was 20.9% and the viability, T/C [20] was 19.5%. The viability, T/C [5] was 18.4%, the viability, T/C [6] was 20.2% and the viability, T/C [21] was 16.6%. For the same compound, the viability, T/C [22] was 19.8%, the viability, T/C [23] was 15.2% and the viability, T/C [24] was 13.6%. It also gave a viability, T/C [7] of 2.74%, a viability, T/C [8] of 3.71% and a viability, T/C [25] of 5.04%. It also gave a viability, T/C [26] of 3.41%, a viability, T/C [27] of 3.52% and a viability, T/C [28] of 1.82%. The viability, T/C [9] was 3.79%, the viability, T/C [10] was 4.62% and the viability, T/C [29] was 5.76%. The viability, T/C [30] was 4.04%, the viability, T/C [31] was 4.01% and the viability, T/C [32] was 6.04%. It also gave a viability, T/C [11] of 3.95%, a viability, T/C [12] of 5.3% and a viability, T/C [33] of 4.73%. The viability, T/C [34] was 4.61%, the viability, T/C [35] was 5.93% and the viability, T/C [36] was 4.49%.
`O=c1[nH]cc(F)c(=O)[nH]1` + CN1CCN(c2cc(C(=O)Nc3cc4cc(-c5cnn(C)c5)ccc4cn3)ccn2)CC1 showed an IC50 (second compound 0.0316 µM) of 7400 nM, an IC50 (second compound 0.1 µM) of 3150 nM and an IC50 (second compound 0.316 µM) of less than 31.6 nM. It also gave an IC50 (second compound 1 µM) of less than 31.6 nM, an IC50 (second compound 3.16 µM) of less than 31.6 nM and an IC50 (second compound 10 µM) of less than 31.6 nM. The viability, T/C [1] was 99.5%, the viability, T/C [2] was 96.8% and the viability, T/C [13] was 99.3%. The viability, T/C [14] was 85.8%, the viability, T/C [15] was 63% and the viability, T/C [16] was 45.4%. It also gave a viability, T/C [3] of 62.8%, a viability, T/C [4] of 85.4% and a viability, T/C [17] of 73.5%. It also gave a viability, T/C [18] of 67.4%, a viability, T/C [19] of 50.2% and a viability, T/C [20] of 36.7%. It also gave a viability, T/C [5] of 26.1%, a viability, T/C [6] of 27% and a viability, T/C [21] of 26.6%. The viability, T/C [22] was 25.2%, the viability, T/C [23] was 24.5% and the viability, T/C [24] was 22.6%. For the same compound, the viability, T/C [7] was 3.34%, the viability, T/C [8] was 2.81% and the viability, T/C [25] was 3.78%. For the same compound, the viability, T/C [26] was 3.65%, the viability, T/C [27] was 4.75% and the viability, T/C [28] was 3.29%. For the same compound, the viability, T/C [9] was 4.71%, the viability, T/C [10] was 4.34% and the viability, T/C [29] was 4.13%. The viability, T/C [30] was 4.08%, the viability, T/C [31] was 6.26% and the viability, T/C [32] was 5.19%. It also gave a viability, T/C [11] of 3.98%, a viability, T/C [12] of 3.73% and a viability, T/C [33] of 3.94%. For the same compound, the viability, T/C [34] was 4.27%, the viability, T/C [35] was 7.34% and the viability, T/C [36] was 3.84%.
